Results as given in US20110136867A1, “Treatment of Synucleinopathies” (priority 2006, published 2011).
“Also recorded” adds a separate entry of the source.

Columns and labels:
[1] = system: α-synuclein; test: Immunostaining for human α-synuclein in brain sections of α-synuclein transgenic mice; format: in vivo; conditions: 35 mg/kg twice a day orally, 30 days, vs vehicle
Procedure: (§1) Farnesyl transferase inhibitors Zarnestra and OSI-754 were administered to mice of the α-synuclein transgenic line described in Masliah et al. (Masliah et al. “Dopaminergic loss and inclusion body formation in alpha-synuclein mice: implications for neurodegenerative disorders” Science 287(5456):1265-69, 2000; incorporated herein by reference). Animals from this line have α-synuclein neuronal inclusions in the cortex, hippocampus, and the olfactory bulb (Masliah et al. “Dopaminergic loss and inclusion body formation in alpha-synuclein mice: implications for neurodegenerative disorders” Science 287(5456):1265-69, 2000; incorporated herein by reference). Transgenic mice were orally administered either FTI in 20% cyclodextrin solution or the same volume of vehicle alone twice a day for 30 or 90 days. In some cases, non-transgenic mice also received vehicle twice a day for 30 to 90 days. At the end of treatment, mice were sacrificed, and the brains removed and hemisected. One hemisphere of each was fixed in 4% paraformaldehyde/PBS (pH 7.4), cryoperserved, then sectioned for histology. The other hemisphere was subdivided into four brain regions, including the cortex and hippocampus, that were homogenized and processed into cytoplasmic and membrane fractions.
Formation of α-synuclein inclusions in the cortex and hippocampus was probed by immunostaining with an antibody for human α-synuclein. Cells positive for human α-synuclein were quantified. […] These regions were also analyzed for ubiquitin-immunoreactive inclusions and by the Campbell Switzer method of silver staining. Ubiquitin is known to be a constituent of Lewy Bodies and in the α-synculein inclusions found in the transgenic mouse line used in the study (Masliah et al. “Dopaminergic loss and inclusion body formation in alpha-synuclein mice: implications for neurodegenerative disorders” Science 287(5456):1265-69, 2000; incorporated herein by reference). […] Campbell-Switzer staining is a general marker of Lewy Body type inclusions (Uchihara et al. “Silver stainings distinguish Lewy bodies and glial cytoplasmic inclusions: comparison between Gallyas-Braak and Campbell-Switzer methods” Acta Neuropathol. (Berl.) 110(3):255-60, 2005; incorporated herein by reference).

[2] = system: farnesylated UCH-L1; test: Quantitative Western Blot of farnesylated UCH-L1 in cortex membrane fraction of α-synuclein transgenic mice; format: in vivo; conditions: 35 mg/kg twice a day, 30 days, 35 mg/kg
Procedure: Farnesyl transferase inhibitors Zarnestra and OSI-754 were administered to mice of the α-synuclein transgenic line described in Masliah et al. (Masliah et al. “Dopaminergic loss and inclusion body formation in alpha-synuclein mice: implications for neurodegenerative disorders” Science 287(5456):1265-69, 2000; incorporated herein by reference). Animals from this line have α-synuclein neuronal inclusions in the cortex, hippocampus, and the olfactory bulb (Masliah et al. “Dopaminergic loss and inclusion body formation in alpha-synuclein mice: implications for neurodegenerative disorders” Science 287(5456):1265-69, 2000; incorporated herein by reference). Transgenic mice were orally administered either FTI in 20% cyclodextrin solution or the same volume of vehicle alone twice a day for 30 or 90 days. In some cases, non-transgenic mice also received vehicle twice a day for 30 to 90 days. At the end of treatment, mice were sacrificed, and the brains removed and hemisected. One hemisphere of each was fixed in 4% paraformaldehyde/PBS (pH 7.4), cryoperserved, then sectioned for histology. […]
Farnesylated UCH-L1 in the cortex is contained in the membrane fraction. The amount of UCH-L1 was determined by quantitative Western Blot.
Total α-synuclein levels were analyzed by a sandwich ELISA assay. […] The amount of farnesylated UCH-L1 was determined by quantitative Western Blot, then normalized to actin.

[3] = system: α-synuclein; test: Sandwich ELISA of total α-synuclein in brain fractions of α-synuclein transgenic mice; format: in vivo; conditions: 35 mg/kg twice a day, 30 days
Procedure: as §1
Total α-synuclein levels were analyzed by a sandwich ELISA assay similar to one previously described (El-Agnaf et al. “Detection of oligomeric forms of alpha-synuclein protein in human plasma as a potential biomarker for Parkinson's disease” FASEB J. 20(3):419-25, 2006; incorporated herein by reference). In the cortex of vehicle treated animals, α-synuclein protein levels in the α-synuclein transgenic line are greater than in non-transgenic mice in both cytoplasmic (FIG. 10) and membrane fractions (FIG. 11).

[4] = system: ubiquitin-immunoreactive inclusions; test: Ubiquitin immunohistochemistry in brain of α-synuclein transgenic mice; format: in vivo; conditions: 35 mg/kg twice a day, 30 days; vs vehicle
Procedure: (§2) Farnesyl transferase inhibitors Zarnestra and OSI-754 were administered to mice of the α-synuclein transgenic line described in Masliah et al. (Masliah et al. “Dopaminergic loss and inclusion body formation in alpha-synuclein mice: implications for neurodegenerative disorders” Science 287(5456):1265-69, 2000; incorporated herein by reference). Animals from this line have α-synuclein neuronal inclusions in the cortex, hippocampus, and the olfactory bulb (Masliah et al. “Dopaminergic loss and inclusion body formation in alpha-synuclein mice: implications for neurodegenerative disorders” Science 287(5456):1265-69, 2000; incorporated herein by reference). Transgenic mice were orally administered either FTI in 20% cyclodextrin solution or the same volume of vehicle alone twice a day for 30 or 90 days. In some cases, non-transgenic mice also received vehicle twice a day for 30 to 90 days. At the end of treatment, mice were sacrificed, and the brains removed and hemisected. […]
(§3) Formation of α-synuclein inclusions in the cortex and hippocampus was probed by immunostaining with an antibody for human α-synuclein. Cells positive for human α-synuclein were quantified. […] These regions were also analyzed for ubiquitin-immunoreactive inclusions and by the Campbell Switzer method of silver staining. […]

[5] = system: Lewy body-like inclusions; test: Campbell Switzer silver staining of Lewy body-like inclusions in α-synuclein transgenic mice; format: in vivo; conditions: 35 mg/kg twice a day, 30 days; vs vehicle
Procedure: as §2, §3

[6] = system: α-synuclein; test: α-synuclein degradation assay in transfected COS-7 cells (quantitative Western blotting); format: cell-based; conditions: transfected COS-7 cells, 35 μM lactacystin, 24 hours
From the text: Plasmids: C220S cDNA was generated by PCR site-specific mutagenesis. For the PCR, the 5′ primer is uchforw SEQ ID NO: 1 ([…]), and 3′ primer is uchc220s SEQ ID NO:2 (CTAAGA […]). Wt UCH-L1 served as the template. The PCR fragment was inserted into pcDNA vector. For S18YC220S mutant, S18Y UCH-L1 served as the template in PCR. For the FLAG tagged UCH-L1, the 5′ primer is FLAGuchforw SEQ ID NO: 3 ([…] CGATGGAG), and the 3′ primer is uchrev SEQ ID NO: 4 ([…]). Wt UCH-L1 or C220S served as the template. PCR fragment was purified and inserted into pcDNA vector. For the FLAG tagged UCH-L3, the 5′ primer is L3HindIII SEQ ID NO: 5 (CTAAAGCTTATGGACTAC […]), the 3′primer is L3XhoISAA SEQ ID NO: 6 ([…]). […] After 24 hours of incubation, the cells were lysed with Tris buffer (50 mM Tris, 2% SDS, 0.1% NP-40), and subjected to SDS-PAGE, followed by quantitative Western blotting.
Western Blotting: Following transfer of SDS gels onto NC membrane, all membranes were blocked with 5% non-fat milk in TBST (50 mM Tris-HCl pH7.4, 150 mM NaCl, 0.1% Tween 20), and incubated with primary antibody overnight with 1% BSA in TBST, washed three times with TBST, and incubated with horseradish peroxidase-conjugated secondary antibody for 1 hour (Promega). Bound antibodies were detected using enhanced chemiluminascence (NEM). […]

[7] = cortex, vs vehicle-treated transgenic mice

Row | SMILES | α-synuclein-positive cells per mm^2 ([1]; cortex) | α-synuclein-positive cells per mm^2 ([1]; hippocampus) | amount of farnesylated UCH-L1 [2] | levels of α-synuclein protein in the cortex [3] | α-synuclein protein levels, cytoplasmic fraction [3, 7] | α-synuclein protein levels, membrane fraction [3, 7] | ubiquitin-immunoreactive inclusions [4] | inclusions by Campbell-Switzer staining [5] | accumulation of α-synuclein (16 KDa, normalized against actin) [6] [%]
1 | Cn1cncc1C(N)(c1ccc(Cl)cc1)c1ccc2c(c1)c(-c1cccc(Cl)c1)cc(=O)n2C (stereo not drawn) [Zarnestra] | significantly fewer | significantly fewer | decreased; also recorded: decreased the amount of farnesylated UCH-L1 in transgenic mice to levels similar to non-transgenic mice | decreased levels of α-synuclein protein | lower α-synuclein protein levels | lower α-synuclein protein levels | fewer ubiquitin-immunoreactive inclusions | fewer inclusions | 
2 | CC(=O)N[C@@H](CSC(=O)[C@]1([C@@H](O)C(C)C)NC(=O)[C@H](C)[C@@H]1O)C(=O)O [lactacystin] |  |  |  |  |  |  |  |  | 100
